From ChEMBL document CHEMBL1201862, “PubChem BioAssay data set” (2004) come the findings set out here.

Test systems include 786-0; A549; BT-549; CCRF-CEM; COLO 205; HCT-116; K562; KM12; LOX IMVI; M14; MDA-N; MOLT-4; Malme-3M; NCI/ADR-RES; OVCAR-4; RXF 393; SF-295; SK-OV-3; TK-10.
Common to all, as to test: inhibition of tumour cell growth, NCI panel, 48 h

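Grown in 96-well plates, cells were treated for 48 hours with each compound at five concentrations. Insufficient inhibition: endpoint recorded as highest concentration tested. Abbreviation: GI50, concentration required for 50% inhibition of growth.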 Calls of active or inactive are those of the source. Rule as the data show it: active = GI50 up to about 1.1 µM and inactive = higher. Some results are limits rather than exact numbers.

As to `Cc1ccc(-c2nc(-c3nccc4ccccc34)oc2-c2ccccc2)cc1`, the GI50 in the assay on 786-0 was 26.6 µM (inactive); in the assay with A549, 40.6 µM (inactive); in the assay on BT-549, > 100 µM (inactive); in the assay with CCRF-CEM, 84.1 µM (inactive); in the assay with COLO 205 it was 42.9 µM (inactive); in the assay with HCT-116, 20.2 µM (inactive). In addition, the GI50 was 55.1 µM (inactive) with K562; 43.1 µM (inactive) in the assay on KM12; 20.3 µM (inactive) in the assay on LOX IMVI; 24.9 µM (inactive) with M14; 38.7 µM (inactive) with MDA-N; 25.2 µM (inactive) in the assay with MOLT-4. Further, the GI50 with Malme-3M is 96.4 µM (inactive); in the assay with NCI/ADR-RES, 98.2 µM (inactive); with OVCAR-4, > 100 µM (inactive); with RXF 393 it was 33.4 µM (inactive); with SF-295, 68.4 µM (inactive); in the assay with SK-OV-3, 68.9 µM (inactive). In addition, the GI50 in the assay on TK-10 was 66.8 µM (inactive).
Consider `CCOc1ccc2c(c1)C(/C(C(Cl)=C(Cl)Cl)=[N+](/[O-])OC(=O)c1ccccc1)=N2`, for which the GI50 in the assay on 786-0 is 72.4 µM (inactive); in the assay on A549, 47 µM (inactive); in the assay on BT-549, 25.4 µM (inactive); with CCRF-CEM, 36.9 µM (inactive); with COLO 205, 40.1 µM (inactive); with HCT-116, 46 µM (inactive). Moreover, the GI50 was 38.7 µM (inactive) in the assay on K562; 35.9 µM (inactive) with KM12; 57.9 µM (inactive) in the assay with LOX IMVI; 58.7 µM (inactive) in the assay on M14; 37 µM (inactive) in the assay with MDA-N; 39 µM (inactive) in the assay on MOLT-4. The GI50 is > 100 µM (inactive) with Malme-3M; 57.3 µM (inactive) in the assay with NCI/ADR-RES; 23 µM (inactive) with OVCAR-4; 47.8 µM (inactive) with RXF 393; 49.7 µM (inactive) in the assay with SF-295; > 100 µM (inactive) in the assay on SK-OV-3. Moreover, the GI50 in the assay on TK-10 is 99.3 µM (inactive).
Turning to `CC(=O)Nc1ccc2cc3c(nc2n1)c1cccnc1n3S(=O)(=O)c1ccccc1`, the GI50 in the assay on 786-0 is 8.02 µM (inactive); with A549 it was > 100 µM (inactive); with BT-549, > 100 µM (inactive); in the assay on CCRF-CEM, > 100 µM (inactive); in the assay with COLO 205 it was > 100 µM (inactive); in the assay with HCT-116, 1.36 µM (inactive). For the same compound, the GI50 with K562 is > 100 µM (inactive); in the assay with KM12, > 100 µM (inactive); in the assay with LOX IMVI, 2.66 µM (inactive); with M14 it was > 100 µM (inactive); in the assay on MDA-N it was > 100 µM (inactive); with MOLT-4, > 100 µM (inactive). Further, the GI50 in the assay with Malme-3M, in the assay on NCI/ADR-RES, in the assay with OVCAR-4, in the assay on RXF 393, in the assay on SF-295 and in the assay with SK-OV-3 was > 100 µM (inactive) in each case. In addition, in the assay on TK-10, the GI50 is > 100 µM (inactive).
Turning to `COC(=O)C(Cc1ccccc1)NP(=O)(O)OCC1OC(n2cc(Br)c(=O)[nH]c2=O)CC1O` (stereo not given), the GI50 in the assay with 786-0, in the assay with A549, in the assay on BT-549, in the assay with CCRF-CEM, in the assay with COLO 205 and in the assay with HCT-116 was > 100 µM (inactive) in each case. Further, the GI50 in the assay on K562, in the assay on KM12, in the assay with LOX IMVI, in the assay with M14, in the assay on MDA-N and with MOLT-4 was > 100 µM (inactive) throughout. The GI50 with Malme-3M, in the assay with NCI/ADR-RES, with OVCAR-4, with RXF 393, in the assay on SF-295 and in the assay with SK-OV-3 was > 100 µM (inactive) throughout. Besides, in the assay with TK-10, the GI50 was > 100 µM (inactive).
On to `COC(=O)[C@]1(C)CCC[C@]2(C)[C@H]3CC[C@]4(C(C)C)OO[C@@H](O4)[C@]34O[C@@H]4C[C@H]21`, for which the GI50 in the assay with 786-0 is 1.6 µM (inactive); in the assay with A549 it was 1.81 µM (inactive); in the assay with BT-549, 4.81 µM (inactive); in the assay on CCRF-CEM, 0.5 µM (active); in the assay on COLO 205, 2.14 µM (inactive); in the assay with HCT-116, 1.63 µM (inactive). Also, the GI50 was 1.99 µM (inactive) in the assay with K562; 2.86 µM (inactive) with KM12; 0.35 µM (active) in the assay on LOX IMVI; 4.8 µM (inactive) in the assay on M14; 2.22 µM (inactive) in the assay on MDA-N; 1.21 µM (inactive) in the assay with MOLT-4. Besides, the GI50 was 6.68 µM (inactive) in the assay on Malme-3M; 3.57 µM (inactive) in the assay on NCI/ADR-RES; 1.85 µM (inactive) in the assay on OVCAR-4; 4.28 µM (inactive) with RXF 393; 3.63 µM (inactive) with SF-295; 2.32 µM (inactive) in the assay with SK-OV-3. Further, the GI50 in the assay on TK-10 was 4.88 µM (inactive).
As to `O=C(CSc1nc2ccc(Cl)cc2c(=O)n1-c1ccccc1)N/N=C1\C(=O)Nc2ccc(F)cc21`, the GI50 was 2.1 µM (inactive) in the assay on 786-0; 2.37 µM (inactive) with A549; 1.85 µM (inactive) in the assay on BT-549; 2.7 µM (inactive) in the assay on CCRF-CEM; 2.21 µM (inactive) with COLO 205; 2.02 µM (inactive) in the assay on HCT-116. Moreover, the GI50 in the assay on K562 was 3.72 µM (inactive); in the assay on KM12, 3.13 µM (inactive); in the assay with LOX IMVI, 1.78 µM (inactive); with M14, 3.21 µM (inactive); in the assay with MDA-N, 2.67 µM (inactive); with MOLT-4, 2.88 µM (inactive). Besides, the GI50 in the assay on Malme-3M is 3.57 µM (inactive); in the assay with NCI/ADR-RES, 2.65 µM (inactive); with OVCAR-4, 2.16 µM (inactive); in the assay with RXF 393 it was 1.76 µM (inactive); in the assay with SF-295, 4.2 µM (inactive); in the assay on SK-OV-3, 8.34 µM (inactive). In addition, the GI50 in the assay with TK-10 is 4.21 µM (inactive).
Turning to `CCOC(=O)c1c(N2CCOCC2)[nH]c(=O)c(C(c2ccco2)c2c(O)c(C(=O)OCC)c(N3CCOCC3)[nH]c2=O)c1O`, the GI50 with 786-0, in the assay with A549, with BT-549, in the assay with CCRF-CEM, in the assay on COLO 205 and in the assay on HCT-116 was > 100 µM (inactive) in each case. In addition, the GI50 in the assay with K562, with KM12, in the assay with LOX IMVI, with M14, in the assay with MDA-N and in the assay with MOLT-4 was > 100 µM (inactive) throughout. The GI50 in the assay with Malme-3M, in the assay with NCI/ADR-RES, with OVCAR-4, with RXF 393, in the assay on SF-295 and in the assay with SK-OV-3 was > 100 µM (inactive) throughout. The GI50 with TK-10 is > 100 µM (inactive).
In the case of `COc1ccc(C2C(C#N)=C(S)N(C3OC(COC(C)=O)C(OC(C)=O)C(OC(C)=O)C3OC(C)=O)C(C)=C2C(C)=O)cc1` (stereo not given), the GI50 in the assay on 786-0 is > 100 µM (inactive); with A549, 70.6 µM (inactive); in the assay on BT-549, 52.4 µM (inactive); with CCRF-CEM, 30.3 µM (inactive); with COLO 205, 58.2 µM (inactive); in the assay with HCT-116, 65 µM (inactive). In addition, the GI50 is 28.1 µM (inactive) in the assay on K562; > 100 µM (inactive) with KM12; > 100 µM (inactive) with LOX IMVI; 57 µM (inactive) in the assay on M14; 46.1 µM (inactive) in the assay with MDA-N; 20.1 µM (inactive) in the assay on MOLT-4. For the same compound, the GI50 was > 100 µM (inactive) in the assay with Malme-3M; > 100 µM (inactive) in the assay with NCI/ADR-RES; 53 µM (inactive) in the assay on OVCAR-4; 40.5 µM (inactive) with RXF 393; > 100 µM (inactive) in the assay on SF-295; > 100 µM (inactive) in the assay with SK-OV-3. The GI50 in the assay with TK-10 is > 100 µM (inactive).
Turning to `Nc1cc2c3c(c1)Oc1cc(N)cc4c1C3c1c(cc(N)cc1O4)O2`, the GI50 with 786-0 is 25.3 µM (inactive); with A549 it was 32.5 µM (inactive); in the assay with BT-549, 15.2 µM (inactive); with CCRF-CEM it was 43.4 µM (inactive); in the assay with COLO 205 it was 16.1 µM (inactive); in the assay with HCT-116, 21.7 µM (inactive). Moreover, the GI50 in the assay with K562 was 30.8 µM (inactive); in the assay on KM12, 22.9 µM (inactive); in the assay on LOX IMVI, 17.9 µM (inactive); in the assay on M14, 26.9 µM (inactive); with MDA-N, 17.8 µM (inactive); in the assay with MOLT-4, 39.6 µM (inactive). The GI50 with Malme-3M was 6.32 µM (inactive); with NCI/ADR-RES, 6.32 µM (inactive); with OVCAR-4 it was 56.5 µM (inactive); in the assay with RXF 393, 12.3 µM (inactive); in the assay with SF-295 it was 26.2 µM (inactive); in the assay with SK-OV-3, 46.5 µM (inactive). For the same compound, the GI50 with TK-10 was 41.7 µM (inactive).
With `COc1ccc(/C=C2\CN(C)CC3=C2OC(N)=C(C#N)C3c2ccc(OC)cc2)cc1` (stereo not given), the GI50 was 30.5 µM (inactive) in the assay with 786-0; 23 µM (inactive) with A549; > 100 µM (inactive) in the assay with BT-549; 7.57 µM (inactive) with CCRF-CEM; > 52.1 µM (inactive) in the assay with COLO 205; 24.3 µM (inactive) with HCT-116. Further, the GI50 in the assay on K562 was 33.6 µM (inactive); with KM12, > 56.5 µM (inactive); in the assay on LOX IMVI, 42.7 µM (inactive); in the assay with M14, 97.1 µM (inactive); in the assay with MDA-N, 21.8 µM (inactive); in the assay on MOLT-4, 5.81 µM (inactive). The GI50 in the assay on Malme-3M was 14.3 µM (inactive); in the assay on NCI/ADR-RES, 51.9 µM (inactive); in the assay with OVCAR-4 it was 21.6 µM (inactive); in the assay on RXF 393, 20.7 µM (inactive); in the assay with SF-295 it was 57.5 µM (inactive); in the assay with SK-OV-3, 5.64 µM (inactive). The GI50 with TK-10 was > 84.5 µM (inactive).
